#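 Values below derive from 48-hour exposures of cells grown in 96-well plates, with endpoints linearly interpolated between the two concentrations bracketing the appropriate inhibition level. GI50: concentration for 50% inhibition of growth.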 Activity calls are given as the source filed them. No stated cut-off is given here; in the data, active = GI50 up to about 1.1 µM and inactive = higher.
# Columns and labels:
# Assay in all cases: DTP human tumour cell line panel, 48 h
# RPMI-8226 = system: RPMI-8226
# MOLT-4 = system: MOLT-4
# CAKI-1 = system: CAKI-1
# HCT-116 = system: HCT-116
# DU-145 = system: DU-145
# MCF7 = system: MCF7
# TK-10 = system: TK-10
# M19-MEL = system: M19-MEL
# EKVX = system: EKVX
# SN12C = system: SN12C
# SK-OV-3 = system: SK-OV-3
# M14 = system: M14
# MDA-MB-231 = system: MDA-MB-231
# SK-MEL-28 = system: SK-MEL-28
# HCT-15 = system: HCT-15
# U-251 = system: U-251
# SNB-75 = system: SNB-75
# BT-549 = system: BT-549
# COLO 205 = system: COLO 205
# SF-539 = system: SF-539
Compound,GI50 (RPMI-8226),GI50 (MOLT-4),GI50 (CAKI-1),GI50 (HCT-116),GI50 (DU-145),GI50 (MCF7),GI50 (TK-10),GI50 (M19-MEL),GI50 (EKVX),GI50 (SN12C),GI50 (SK-OV-3),GI50 (M14),GI50 (MDA-MB-231),GI50 (SK-MEL-28),GI50 (HCT-15),GI50 (U-251),GI50 (SNB-75),GI50 (BT-549),GI50 (COLO 205),GI50 (SF-539)
Nc1ccccc1C(=O)NC(=O)Nc1ccc(Oc2ncc(Br)cn2)c(Cl)c1,0.0182 µM (active),< 0.01 µM (active),< 0.01 µM (active),< 0.01 µM (active),< 0.0123 µM (active),< 0.01 µM (active),0.0274 µM (active),< 0.01 µM (active),0.247 µM (active),0.0133 µM (active),< 0.01 µM (active),0.0152 µM (active),0.0145 µM (active),< 0.01 µM (active),< 0.01 µM,< 0.01 µM (active),< 0.01 µM (active),2.48 µM (inactive),< 0.01 µM (active),< 0.01 µM (active)
C#CCN(N=O)C(=O)NC(CCCNC(=O)OCc1ccccc1)C(=O)OCc1ccccc1 (centres undefined),63.2 µM (inactive),24.8 µM (inactive),28.1 µM (inactive),> 100 µM (inactive),–,–,> 100 µM (inactive),> 100 µM (inactive),> 100 µM (inactive),> 100 µM (inactive),> 100 µM (inactive),> 100 µM (inactive),–,24.9 µM (inactive),76.4 µM,> 100 µM (inactive),> 100 µM (inactive),–,91.2 µM (inactive),75.7 µM (inactive)
CCN1C(=O)/C(=C\c2coc3ccccc3c2=O)SC1=S,> 100 µM (inactive),> 100 µM (inactive),> 100 µM (inactive),64 µM (inactive),–,–,> 100 µM (inactive),> 100 µM (inactive),> 100 µM (inactive),> 100 µM (inactive),> 100 µM (inactive),> 100 µM (inactive),–,> 100 µM (inactive),39.1 µM,28.3 µM (inactive),41.2 µM (inactive),–,> 100 µM (inactive),32.8 µM (inactive)
Cc1c2ncccc2c(C)c2c1[nH]c1ccccc12,6.59 µM (inactive),2.02 µM (inactive),9.23 µM (inactive),5.27 µM (inactive),–,–,17.7 µM (inactive),13.4 µM (inactive),16 µM (inactive),11.5 µM (inactive),17.4 µM (inactive),17.6 µM (inactive),–,15.6 µM (inactive),7.24 µM,12.2 µM (inactive),10.6 µM (inactive),–,13.1 µM (inactive),13.2 µM (inactive)
CS(=O)(=O)c1cc(=O)c2ccccc2s1,2.42 µM (inactive),1.72 µM (inactive),2.07 µM (inactive),1.96 µM (inactive),16.1 µM (inactive),2.72 µM (inactive),7.28 µM (inactive),7.69 µM (inactive),9.06 µM (inactive),9.53 µM (inactive),17.6 µM (inactive),1.85 µM (inactive),15 µM (inactive),3.72 µM (inactive),2.25 µM,19.7 µM (inactive),16 µM (inactive),19.3 µM (inactive),1.76 µM (inactive),13.2 µM (inactive)
O=C(c1ccccc1)c1nnc(C(=O)c2ccccc2)nn1,> 344 µM (inactive),> 344 µM (inactive),> 344 µM (inactive),> 344 µM (inactive),–,–,> 344 µM (inactive),> 344 µM (inactive),> 344 µM (inactive),> 344 µM (inactive),278 µM (inactive),272 µM (inactive),–,> 344 µM (inactive),> 344 µM,165 µM (inactive),83.4 µM (inactive),–,> 344 µM (inactive),> 344 µM (inactive)
CNC(=O)NC(CCCCNC(=O)OCc1ccccc1)C(=O)OCc1ccccc1 (centres undefined),24.9 µM (inactive),19 µM (inactive),47.6 µM (inactive),81.8 µM (inactive),> 100 µM (inactive),53 µM (inactive),38.3 µM (inactive),17 µM (inactive),59.8 µM (inactive),39.5 µM (inactive),> 100 µM (inactive),19.5 µM (inactive),> 42.9 µM (inactive),19.8 µM (inactive),> 96.8 µM,65.9 µM (inactive),5.69 µM (inactive),> 78.2 µM (inactive),16.3 µM (inactive),30.3 µM (inactive)
CC1=NC(C(C)C)C(=O)O1 (centres undefined),22.1 µM (inactive),> 100 µM (inactive),> 100 µM (inactive),18.5 µM (inactive),–,–,> 100 µM (inactive),> 100 µM (inactive),> 100 µM (inactive),> 100 µM (inactive),> 100 µM (inactive),> 100 µM (inactive),–,> 100 µM (inactive),34.4 µM,> 100 µM (inactive),> 100 µM (inactive),–,72.3 µM (inactive),> 100 µM (inactive)
CN1C(c2ccccc2)CC(=O)C(N)C1c1ccccc1 (centres undefined),17.3 µM (inactive),20.1 µM (inactive),28.3 µM (inactive),18 µM (inactive),–,–,43.7 µM (inactive),22.7 µM (inactive),> 53 µM (inactive),34.7 µM (inactive),> 58.6 µM (inactive),26.6 µM (inactive),–,18.6 µM (inactive),26.1 µM,21.4 µM (inactive),63.5 µM (inactive),–,18.5 µM (inactive),42.1 µM (inactive)
CCCCCCCC/C=C1\CCC(CN(C)C)C1=O (centres undefined),0.211 µM (active),2.68 µM (inactive),3.1 µM (inactive),2.96 µM (inactive),–,–,2.54 µM (inactive),3.36 µM (inactive),9.06 µM (inactive),4.02 µM (inactive),17.2 µM (inactive),4.88 µM (inactive),–,3.89 µM (inactive),2.77 µM,2.14 µM (inactive),5.25 µM (inactive),–,4.16 µM (inactive),4.82 µM (inactive)
O=S(O)CCCCSSCc1ccccc1CSSCCCCS(=O)O,10.8 µM (inactive),0.904 µM (active),25.8 µM (inactive),–,–,–,43.4 µM (inactive),4.65 µM (inactive),22.2 µM (inactive),26 µM (inactive),> 100 µM (inactive),10.3 µM (inactive),–,13.1 µM (inactive),19.1 µM,46.7 µM (inactive),9.16 µM (inactive),–,15.5 µM (inactive),15.1 µM (inactive)
O=C1C2C3C=CC(C2C(=O)N1COP(=O)(O)O)C1C2C(=O)N(COP(=O)(O)O)C(=O)C2C31 (centres undefined),> 46.1 µM (inactive),> 100 µM (inactive),> 100 µM (inactive),> 42.6 µM (inactive),–,–,> 100 µM (inactive),> 100 µM (inactive),> 100 µM (inactive),> 74.3 µM (inactive),> 100 µM (inactive),> 100 µM (inactive),–,> 100 µM (inactive),> 41.3 µM,> 70.5 µM (inactive),> 100 µM (inactive),–,> 47.5 µM (inactive),> 100 µM (inactive)
O=C(O)c1ccccc1NS(=O)(=O)c1ccc(Cl)cc1,> 100 µM (inactive),> 100 µM (inactive),> 100 µM (inactive),> 100 µM (inactive),–,–,> 100 µM (inactive),> 100 µM (inactive),> 100 µM (inactive),> 100 µM (inactive),> 100 µM (inactive),> 100 µM (inactive),–,> 100 µM (inactive),> 100 µM,> 100 µM (inactive),> 100 µM (inactive),–,> 100 µM (inactive),> 100 µM (inactive)

# Source: ChEMBL document CHEMBL1201862, “PubChem BioAssay data set” (2004)
